Data as given in the NIST ThermoML archive (doi:10.1016/j.tca.2016.10.016).
Where “and” joins values, the source holds several entries; their conditions need not be identical. Equal entries are not always repeated. ± gives the expanded uncertainty stated by the source.

Columns and labels:
[1] = Crystal; DTA
[2] = Molar enthalpy of transition or fusion; conditions: Crystal; DSC

Normal melting temperature [1]: 99.60 ± 0.7 °C and 101.20 ± 0.7 °C
Molar enthalpy of transition or fusion [2]: 11.3 kcal/mol and 11.2 kcal/mol
SMILES: O.O.O=C(O)C(=O)O [ethanedioic acid dihydrate]
